The target in assay [1] is Matrix metalloproteinase-9 (Homo sapiens, UniProt P14780). In kind it is cell-based.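 Further: inhibition of isolated MMP-9 enzyme activity toward a synthetic peptide substrate, from the DrugMatrix protease screening panel; in other assays of this panel Not Active means under 50% inhibition at 10 µM.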
Assay [2] in a line: DRUGMATRIX: beta-Lactamase enzyme inhibition (substrate: Nitrocefin). Details: species or system Bacillus cereus. The following applies: Not Active = under 50% inhibition at 10 µM.
Assay [3] has as its target T1, 3-hydroxy-3-methylglutaryl-coenzyme A reductase (Homo sapiens, UniProt P04035).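 Further: enzyme inhibition assay of HMG-CoA reductase using radiolabeled [14C]HMG-CoA as substrate; in other assays of this panel Not Active means under 50% inhibition at 10 µM.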
T1 sequence (P04035 whole entry): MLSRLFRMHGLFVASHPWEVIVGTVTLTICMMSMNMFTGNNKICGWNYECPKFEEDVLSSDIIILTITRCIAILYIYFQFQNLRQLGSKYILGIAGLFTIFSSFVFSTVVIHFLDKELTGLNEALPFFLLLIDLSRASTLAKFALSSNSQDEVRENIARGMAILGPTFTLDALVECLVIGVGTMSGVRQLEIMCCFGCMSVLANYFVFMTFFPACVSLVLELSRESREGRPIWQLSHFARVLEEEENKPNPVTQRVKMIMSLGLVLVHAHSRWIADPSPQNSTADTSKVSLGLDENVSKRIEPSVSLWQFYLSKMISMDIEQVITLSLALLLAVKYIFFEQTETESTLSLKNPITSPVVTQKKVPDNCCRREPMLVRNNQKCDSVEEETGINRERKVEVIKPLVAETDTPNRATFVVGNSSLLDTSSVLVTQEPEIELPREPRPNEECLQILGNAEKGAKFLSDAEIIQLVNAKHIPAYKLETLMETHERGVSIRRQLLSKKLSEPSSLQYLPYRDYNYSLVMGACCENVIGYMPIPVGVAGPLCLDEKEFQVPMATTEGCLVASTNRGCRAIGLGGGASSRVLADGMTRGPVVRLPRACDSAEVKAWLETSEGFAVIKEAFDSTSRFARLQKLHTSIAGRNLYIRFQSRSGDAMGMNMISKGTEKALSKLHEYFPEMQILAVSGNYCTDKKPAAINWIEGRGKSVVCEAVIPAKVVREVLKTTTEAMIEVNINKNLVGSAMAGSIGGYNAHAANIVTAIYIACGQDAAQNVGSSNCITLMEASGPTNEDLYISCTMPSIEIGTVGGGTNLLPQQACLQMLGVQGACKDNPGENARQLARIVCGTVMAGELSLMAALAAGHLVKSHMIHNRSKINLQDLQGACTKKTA
Further details: species or system Escherichia coli.

The target in assay [4] is T2, Amine oxidase [flavin-containing] A (Homo sapiens, UniProt P21397).
T2 sequence (P21397 whole entry): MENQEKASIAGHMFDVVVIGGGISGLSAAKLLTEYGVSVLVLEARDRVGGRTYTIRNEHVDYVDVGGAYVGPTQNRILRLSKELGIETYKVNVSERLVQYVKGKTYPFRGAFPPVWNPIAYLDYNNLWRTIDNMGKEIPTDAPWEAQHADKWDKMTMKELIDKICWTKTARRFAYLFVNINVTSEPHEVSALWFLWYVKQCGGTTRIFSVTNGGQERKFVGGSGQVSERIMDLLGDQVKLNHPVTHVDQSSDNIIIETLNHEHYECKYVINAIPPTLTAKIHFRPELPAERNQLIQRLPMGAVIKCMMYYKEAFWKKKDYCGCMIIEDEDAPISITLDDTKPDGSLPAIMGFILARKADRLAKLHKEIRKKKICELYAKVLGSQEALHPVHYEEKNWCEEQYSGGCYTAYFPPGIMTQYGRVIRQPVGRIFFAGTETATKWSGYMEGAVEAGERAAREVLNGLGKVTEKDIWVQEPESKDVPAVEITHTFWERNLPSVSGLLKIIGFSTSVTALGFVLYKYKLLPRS
The assay is described as follows: DRUGMATRIX: Monoamine Oxidase MAO-A enzyme inhibition (substrate: Kynuramine). Further details: species or system BTI-TN-5B1-4. The settings on record: bti-tn-5b1-4; Not Active = under 50% inhibition at 10 µM.

The target of assay [5] is Receptor tyrosine-protein kinase erbB-2 (Homo sapiens, UniProt P04626). The assay is described as follows: biochemical. In kind it is cell-based, Insect cells.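 Further: inhibition of HER2 kinase enzyme activity, measured with Poly(Glu:Tyr) as the phosphorylation substrate; in other assays of this panel Not Active means under 50% inhibition at 10 µM.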
Receptor tyrosine-protein kinase erbB-2, sequence (P04626 whole entry): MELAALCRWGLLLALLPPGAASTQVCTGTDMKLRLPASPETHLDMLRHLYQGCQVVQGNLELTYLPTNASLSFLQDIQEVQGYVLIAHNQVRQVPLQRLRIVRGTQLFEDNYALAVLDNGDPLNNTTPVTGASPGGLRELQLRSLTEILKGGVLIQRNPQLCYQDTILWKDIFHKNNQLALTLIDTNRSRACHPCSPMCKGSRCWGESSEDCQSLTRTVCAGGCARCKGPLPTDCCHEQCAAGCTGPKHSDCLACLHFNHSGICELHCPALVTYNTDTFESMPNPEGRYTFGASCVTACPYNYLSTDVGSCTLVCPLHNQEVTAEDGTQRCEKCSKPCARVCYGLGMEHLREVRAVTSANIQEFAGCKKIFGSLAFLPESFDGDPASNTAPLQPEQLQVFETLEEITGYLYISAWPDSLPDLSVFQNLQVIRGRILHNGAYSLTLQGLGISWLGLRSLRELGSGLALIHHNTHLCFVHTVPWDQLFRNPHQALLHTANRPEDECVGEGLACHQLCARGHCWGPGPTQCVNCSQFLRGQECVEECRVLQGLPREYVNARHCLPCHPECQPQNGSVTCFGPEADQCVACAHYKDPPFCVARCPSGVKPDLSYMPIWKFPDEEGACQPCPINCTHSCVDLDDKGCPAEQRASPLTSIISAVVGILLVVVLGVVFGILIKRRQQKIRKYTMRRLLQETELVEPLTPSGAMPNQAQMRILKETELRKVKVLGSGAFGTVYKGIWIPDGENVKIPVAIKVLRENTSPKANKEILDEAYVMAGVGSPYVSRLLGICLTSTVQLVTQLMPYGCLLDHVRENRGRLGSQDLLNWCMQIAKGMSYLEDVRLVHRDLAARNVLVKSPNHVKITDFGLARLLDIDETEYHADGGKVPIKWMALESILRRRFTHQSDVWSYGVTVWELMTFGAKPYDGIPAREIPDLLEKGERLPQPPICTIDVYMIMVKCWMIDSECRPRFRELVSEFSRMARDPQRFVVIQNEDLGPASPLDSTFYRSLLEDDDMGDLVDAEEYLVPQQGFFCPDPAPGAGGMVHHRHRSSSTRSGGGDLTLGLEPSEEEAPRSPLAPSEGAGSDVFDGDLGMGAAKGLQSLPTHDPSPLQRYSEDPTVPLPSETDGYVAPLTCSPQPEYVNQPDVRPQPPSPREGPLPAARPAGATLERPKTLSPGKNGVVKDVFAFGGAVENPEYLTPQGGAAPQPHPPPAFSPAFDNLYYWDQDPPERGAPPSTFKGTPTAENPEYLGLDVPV
Assay [6] has as its target Tyrosine-protein kinase Fyn (Homo sapiens, UniProt P06241). Put plainly: biochemical. In kind it is cell-based, Insect cells.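 Further: enzymatic inhibition of Fyn kinase activity measured with Poly(Glu:Tyr) as the phosphorylation substrate; in other assays of this panel Not Active means under 50% inhibition at 10 µM.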
The target in assay [7] is Delta-type opioid receptor (Homo sapiens, UniProt P41143). In kind it is cell membranes, HEK293, Membrane. The settings on record: hek293. Further: in other assays of this panel Not Active means under 50% inhibition at 10 µM.
Delta-type opioid receptor, sequence (P41143 whole entry): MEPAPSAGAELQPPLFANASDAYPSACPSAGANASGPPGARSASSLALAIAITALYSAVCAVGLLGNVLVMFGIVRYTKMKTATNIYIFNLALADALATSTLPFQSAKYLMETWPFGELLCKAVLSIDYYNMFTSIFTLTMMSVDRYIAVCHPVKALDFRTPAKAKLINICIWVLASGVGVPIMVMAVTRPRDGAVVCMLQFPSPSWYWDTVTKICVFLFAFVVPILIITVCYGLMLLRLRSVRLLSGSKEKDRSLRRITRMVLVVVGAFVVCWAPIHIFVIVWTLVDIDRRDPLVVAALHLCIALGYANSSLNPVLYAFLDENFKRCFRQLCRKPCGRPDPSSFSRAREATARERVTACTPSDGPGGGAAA
Assay [8] has as its target 5-hydroxytryptamine receptor 6 (Homo sapiens, UniProt P50406). It is filed as cell membranes, HeLa, Membrane. The settings on record: hela. Further: in other assays of this panel Not Active means under 50% inhibition at 10 µM.
A further assay concerns the target Mu-type opioid receptor (Homo sapiens, UniProt P35372). Put plainly: DRUGMATRIX: Opiate mu (OP3, MOP) radioligand binding (ligand: [3H] Diprenorphine). It is filed as cell membranes, CHO-K1, Membrane. The following applies: cho-k1; Not Active = under 50% inhibition at 10 µM.
For a further assay, the target named is T3, Adenosine receptor A1 (Homo sapiens, UniProt P30542).
T3 sequence (P30542 whole entry): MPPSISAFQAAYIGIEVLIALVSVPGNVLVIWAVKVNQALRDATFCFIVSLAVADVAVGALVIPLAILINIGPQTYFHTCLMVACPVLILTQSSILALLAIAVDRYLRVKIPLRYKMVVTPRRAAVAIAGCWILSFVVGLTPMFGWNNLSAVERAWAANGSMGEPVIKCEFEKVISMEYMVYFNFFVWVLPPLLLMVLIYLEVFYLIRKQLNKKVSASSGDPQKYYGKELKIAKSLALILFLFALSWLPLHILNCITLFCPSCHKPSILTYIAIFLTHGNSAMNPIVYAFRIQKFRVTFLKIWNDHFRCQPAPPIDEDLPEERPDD
It is filed as cell membranes, CHO, Membrane. The following applies: cho.

Assay [9] deals with T4, Cholecystokinin receptor type A (Homo sapiens, UniProt P32238).
T4 sequence (P32238 whole entry): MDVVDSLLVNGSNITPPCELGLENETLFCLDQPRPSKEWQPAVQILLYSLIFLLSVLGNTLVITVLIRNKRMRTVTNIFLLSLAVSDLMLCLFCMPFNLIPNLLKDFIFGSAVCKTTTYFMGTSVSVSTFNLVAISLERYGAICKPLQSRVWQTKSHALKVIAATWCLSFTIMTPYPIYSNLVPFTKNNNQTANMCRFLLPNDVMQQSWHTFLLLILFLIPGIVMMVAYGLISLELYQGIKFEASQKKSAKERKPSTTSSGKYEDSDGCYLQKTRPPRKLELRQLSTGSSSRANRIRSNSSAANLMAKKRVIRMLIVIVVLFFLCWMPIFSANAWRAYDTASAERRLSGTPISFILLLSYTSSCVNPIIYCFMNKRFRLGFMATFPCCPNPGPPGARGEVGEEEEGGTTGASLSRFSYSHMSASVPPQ
In kind it is cell membranes, Membrane. The following applies: 1321-n1.

For assay [10], the target named is 5-hydroxytryptamine receptor 4 (Cavia porcellus, UniProt O70528). In kind it is cell membranes, Dunkin-Hartley, Striatum, Membrane. Further: in other assays of this panel Not Active means under 50% inhibition at 10 µM.
5-hydroxytryptamine receptor 4, sequence (O70528 whole entry): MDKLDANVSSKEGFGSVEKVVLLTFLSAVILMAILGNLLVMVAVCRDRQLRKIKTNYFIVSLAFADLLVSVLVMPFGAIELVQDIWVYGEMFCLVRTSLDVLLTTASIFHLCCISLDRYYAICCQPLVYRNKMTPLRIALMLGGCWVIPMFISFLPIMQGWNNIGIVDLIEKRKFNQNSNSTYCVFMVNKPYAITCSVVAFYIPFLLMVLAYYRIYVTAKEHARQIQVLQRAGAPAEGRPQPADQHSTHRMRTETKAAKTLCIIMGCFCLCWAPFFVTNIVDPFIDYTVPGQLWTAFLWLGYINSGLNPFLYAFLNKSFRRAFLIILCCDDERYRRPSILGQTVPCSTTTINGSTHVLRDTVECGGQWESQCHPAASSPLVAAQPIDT

The source of these data is ChEMBL document CHEMBL1909046, “DrugMatrix in vitro pharmacology data”.

Mu-type opioid receptor, sequence (P35372 whole entry): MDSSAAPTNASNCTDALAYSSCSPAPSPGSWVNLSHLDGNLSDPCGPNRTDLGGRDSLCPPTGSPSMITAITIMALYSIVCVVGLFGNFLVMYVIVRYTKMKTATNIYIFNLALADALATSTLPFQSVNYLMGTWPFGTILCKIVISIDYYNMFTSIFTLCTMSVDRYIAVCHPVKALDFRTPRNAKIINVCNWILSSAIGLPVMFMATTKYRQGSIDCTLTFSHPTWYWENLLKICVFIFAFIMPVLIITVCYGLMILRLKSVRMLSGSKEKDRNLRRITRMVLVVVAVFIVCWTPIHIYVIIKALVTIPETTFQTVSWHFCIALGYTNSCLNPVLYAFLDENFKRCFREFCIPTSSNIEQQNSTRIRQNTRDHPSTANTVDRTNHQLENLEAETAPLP
Matrix metalloproteinase-9, sequence (P14780 whole entry): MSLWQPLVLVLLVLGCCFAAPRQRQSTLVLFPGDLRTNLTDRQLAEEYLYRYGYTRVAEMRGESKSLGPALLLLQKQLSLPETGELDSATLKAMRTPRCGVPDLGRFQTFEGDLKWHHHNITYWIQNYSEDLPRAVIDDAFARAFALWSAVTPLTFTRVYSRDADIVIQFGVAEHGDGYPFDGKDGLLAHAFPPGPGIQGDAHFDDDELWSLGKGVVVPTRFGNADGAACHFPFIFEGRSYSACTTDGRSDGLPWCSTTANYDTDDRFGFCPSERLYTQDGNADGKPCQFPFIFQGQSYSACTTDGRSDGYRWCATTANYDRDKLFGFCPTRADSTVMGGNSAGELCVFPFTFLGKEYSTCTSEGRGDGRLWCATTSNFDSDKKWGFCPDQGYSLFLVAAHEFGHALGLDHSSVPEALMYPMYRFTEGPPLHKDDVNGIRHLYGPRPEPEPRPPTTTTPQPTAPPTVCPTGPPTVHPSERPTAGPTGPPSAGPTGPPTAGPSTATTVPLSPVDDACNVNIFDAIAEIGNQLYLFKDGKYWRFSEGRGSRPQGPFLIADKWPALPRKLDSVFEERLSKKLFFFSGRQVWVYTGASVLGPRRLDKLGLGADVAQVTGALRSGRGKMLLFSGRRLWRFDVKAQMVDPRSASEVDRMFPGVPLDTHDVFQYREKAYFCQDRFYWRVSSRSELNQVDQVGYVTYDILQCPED
5-hydroxytryptamine receptor 6, sequence (P50406 whole entry): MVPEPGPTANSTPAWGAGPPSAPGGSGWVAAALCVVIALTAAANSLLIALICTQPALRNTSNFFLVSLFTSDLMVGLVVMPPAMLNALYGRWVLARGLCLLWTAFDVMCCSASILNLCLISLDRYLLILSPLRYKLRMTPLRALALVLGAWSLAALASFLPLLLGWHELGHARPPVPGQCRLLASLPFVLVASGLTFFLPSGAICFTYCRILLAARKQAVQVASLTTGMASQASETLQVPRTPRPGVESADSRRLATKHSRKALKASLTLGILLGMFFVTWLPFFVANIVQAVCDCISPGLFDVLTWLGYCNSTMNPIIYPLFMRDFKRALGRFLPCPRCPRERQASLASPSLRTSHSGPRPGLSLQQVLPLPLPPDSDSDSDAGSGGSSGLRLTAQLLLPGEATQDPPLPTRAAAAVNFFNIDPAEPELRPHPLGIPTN
Tyrosine-protein kinase Fyn, sequence (P06241 whole entry): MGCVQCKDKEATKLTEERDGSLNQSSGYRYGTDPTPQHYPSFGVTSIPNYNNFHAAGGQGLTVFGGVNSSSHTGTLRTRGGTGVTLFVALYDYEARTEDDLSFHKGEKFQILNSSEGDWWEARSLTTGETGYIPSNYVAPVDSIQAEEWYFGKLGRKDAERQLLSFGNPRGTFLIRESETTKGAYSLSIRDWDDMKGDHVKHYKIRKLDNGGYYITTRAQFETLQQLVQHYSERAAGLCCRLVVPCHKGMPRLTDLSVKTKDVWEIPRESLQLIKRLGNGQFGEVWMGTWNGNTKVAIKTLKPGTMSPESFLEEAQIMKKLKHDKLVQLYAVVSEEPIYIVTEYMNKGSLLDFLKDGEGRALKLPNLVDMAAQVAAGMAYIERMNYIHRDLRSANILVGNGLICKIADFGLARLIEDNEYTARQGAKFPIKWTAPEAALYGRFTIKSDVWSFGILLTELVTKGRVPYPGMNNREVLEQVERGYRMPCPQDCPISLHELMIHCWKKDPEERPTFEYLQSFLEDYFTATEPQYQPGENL

Consider `CCOC(=O)[C@H](CCc1ccccc1)N[C@@H](C)C(=O)N1[C@H](C(=O)O)C[C@@H]2CCC[C@@H]21`, for which the IC50 result in assay [1], in assay [2], in assay [3], in assay [4], in assay [5] (insect cells) and in assay [6] (insect cells) was “Not Active” in each case. The concentration for half-maximal inhibition (IC50) entry (in [7]; in [8]; at Mu-type opioid receptor; on Adenosine receptor A1; in [9]; in assay [10]) was “Not Active” throughout. In assay [2], the Ki result is listed as “Not Active”.

On to `CC1(C)[C@H]2CC[C@]1(C)C(=O)C2` [(-)-CAMPHOR], for which the IC50 result in assay [1], in assay [2], in assay [3], in assay [4], in assay [5] (insect cells) and in assay [6] (insect cells) was “Not Active” throughout. Further, the IC50 result (in [7]; in assay [8]; on Mu-type opioid receptor; on Adenosine receptor A1; in [9]; in [10]) was “Not Active” in each case. Also, in assay [2], the Ki entry was “Not Active”.

On to `CC(C)(C)NCC(O)c1ccc(O)c(CO)c1` (centres undefined) [ALBUTEROL], for which the IC50 result in assay [1], in assay [2], in assay [3], in [4], in assay [5] (insect cells) and in [6] (insect cells) was “Not Active” throughout. The IC50 result (in [7]; in [8]; at Mu-type opioid receptor; against Adenosine receptor A1; in [9]; in assay [10]) was “Not Active” in each case. For the same molecule, the Ki entry in assay [2] is “Not Active”.

For `Oc1c(I)cc(I)c2cccnc12` [IODOQUINOL], the IC50 entry in assay [1] was “Not Active”; in assay [2], “Not Active”; in assay [3], “Not Active”; in assay [4], “Not Active”; in [5] (read-out: IC50), 8.58 µM; in [6] (read-out: IC50), 1.57 µM. The IC50 entry (in [7]; in assay [8]; at Mu-type opioid receptor; against Adenosine receptor A1; in [9]; in assay [10]) was “Not Active” in each case. In addition, in assay [2], the Ki result is “Not Active”.

Turning to `NNC(=O)c1ccncc1` [ISONIAZID], the 50% inhibitory concentration (IC50) entry in assay [1], in assay [2], in assay [3], in assay [4], in assay [5] (insect cells) and in assay [6] (insect cells) was “Not Active” in each case. Also, the IC50 result (in assay [7]; in assay [8]; at Mu-type opioid receptor; at Adenosine receptor A1; in [9]; in assay [10]) was “Not Active” each time. Further, the Ki result in assay [2] is “Not Active”.

For `CC1=C(/C=C/C(C)=C/C=C/C(C)=C\C(=O)O)C(C)(C)CCC1` [ISOTRETINOIN], the IC50 entry in [1], in assay [2], in assay [3], in assay [4], in assay [5] (insect cells) and in assay [6] (insect cells) was “Not Active” throughout. The IC50 result (in [7]; in [8]; on Mu-type opioid receptor; against Adenosine receptor A1; in assay [9]; in assay [10]) was “Not Active” throughout. Also, the Ki result in assay [2] is given as “Not Active”.

Consider `CO[C@@H]1[C@@H](O[C@@H]2O[C@H](C)[C@@H](O[C@H]3C[C@@](C)(O)[C@@H](OC(=O)CC(C)C)[C@H](C)O3)[C@H](N(C)C)[C@H]2O)[C@@H](CC=O)C[C@@H](C)[C@@H](O)/C=C/C=C/C[C@@H](C)OC(=O)C[C@H]1O` [KITASAMYCIN], for which the IC50 entry in [1], in assay [2], in assay [3], in assay [4], in assay [5] (insect cells) and in [6] (insect cells) was “Not Active” in each case. The half-inhibitory concentration (IC50) entry (in assay [7]; in [8]; at Mu-type opioid receptor; at Adenosine receptor A1; in assay [9]; in assay [10]) was “Not Active” throughout. Further, the Ki result in assay [2] is recorded as “Not Active”.

As to `CC(CCc1ccccc1)NCC(O)c1ccc(O)c(C(N)=O)c1` (centres undefined) [LABETALOL], the IC50 result in assay [1], in [2], in [3], in [4], in [5] (insect cells) and in [6] (insect cells) was “Not Active” each time. For the same molecule, the IC50 result (in assay [7]; in [8]; at Mu-type opioid receptor; against Adenosine receptor A1; in assay [9]; in assay [10]) was “Not Active” each time. Moreover, the Ki entry in assay [2] is listed as “Not Active”.

What is called IC50 is the midpoint of a concentration-inhibition curve.
